According to publication PMC7926793, “Synthesis and Biological Evaluation of 1-(Diarylmethyl)-1H-1,2,4-triazoles and 1-(Diarylmethyl)-1H-imidazoles as a Novel Class of Anti-Mitotic Agent for Activity in Breast Cancer” (Pharmaceuticals, 2021):
Where “and” joins values, the source holds several entries; their conditions need not be identical. Identical values can stand only once. Like-named read-outs stand apart in the source and are kept apart here.

Legend:
CYP19 (aromatase) = molecular target: T1, CYP19 (aromatase) (Homo sapiens, UniProt P11511); experiment: cytochrome P450 assay (DBF fluorescence); details: for IC50: IC50 CYP19; for inhibition at 20 µg/mL: read-out: % Inhibition at 20 µg/mL CYP19
T1 sequence (P11511 1-503): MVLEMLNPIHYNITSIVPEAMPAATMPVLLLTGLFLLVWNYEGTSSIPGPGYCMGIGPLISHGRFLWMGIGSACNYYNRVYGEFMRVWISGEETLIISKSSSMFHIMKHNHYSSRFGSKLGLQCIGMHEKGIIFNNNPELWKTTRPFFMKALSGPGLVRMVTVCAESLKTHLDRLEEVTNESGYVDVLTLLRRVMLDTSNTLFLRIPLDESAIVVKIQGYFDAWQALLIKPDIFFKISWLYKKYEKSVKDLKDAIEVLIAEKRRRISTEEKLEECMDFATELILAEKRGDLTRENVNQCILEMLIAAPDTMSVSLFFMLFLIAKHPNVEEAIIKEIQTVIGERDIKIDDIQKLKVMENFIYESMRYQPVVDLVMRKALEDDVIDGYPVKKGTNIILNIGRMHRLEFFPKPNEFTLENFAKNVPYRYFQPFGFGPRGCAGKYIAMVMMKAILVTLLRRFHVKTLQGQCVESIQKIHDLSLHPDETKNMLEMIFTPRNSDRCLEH

NCI-H23 = experiment: NCI 60 cell line screen (Non-Small Cell Lung Cancer); format: cell-based, human; details: for GI50: Homo sapiens, NCI-H23, NCI 5 dose assay; for Growth percentage: NCI-H23, single dose 10 µM
SK-MEL-5 = experiment: NCI 60 cell line screen (Melanoma); format: cell-based, human; details: for GI50: Homo sapiens, SK-MEL-5, NCI 5 dose assay; for Growth percentage: SK-MEL-5, single dose 10 µM
[1] = system: MDA-MB-231 human breast cancer cells; experiment: alamarBlue cell viability assay; format: cell-based; details: read-out: Antiproliferative Activity MDA-MB-231 Cells IC50
Experimental: (§1) The human breast carcinoma cell line MCF-7 was purchased from the European Collection of Animal Cell Cultures (ECACC) and cultured in Eagles minimum essential medium with 10% foetal bovine serum, 2 mM L-glutamine, and 100 μg/mL penicillin/streptomycin. The medium was supplemented with 1% non-essential amino acids. The human breast carcinoma cell line MDA-MB-231 was purchased from the ECACC. MDA-MB-231 cells were maintained in Dulbecco’s modified Eagle’s medium (DMEM) supplemented with 10% (v/v) foetal bovine serum, 2 mM L-glutamine, and 100 μg/mL penicillin/streptomycin (complete medium). HL-60 cells were derived from a patient with acute myeloid leukaemia and were obtained from the ECACC (Salisbury, UK). Cells were cultured in RPMI-1640 Glutamax medium supplemented with 10% FCS media and 100 μg/mL penicillin/streptomycin. MCF-10A cells were obtained as a kind gift from Dr Susan McDonnell, School of Chemical and Bioprocess Engineering, University College Dublin and were cultured in Dulbecco’s Modified Eagle Medium: Nutrient Mixture F-12 (DMEM/F12; Gibco) supplemented with 5% horse serum (Invitrogen), 20 ng mL^−1 epidermal growth factor (Merck Millipore), 0.5 μg mL^−1 hydrocortisone (Sigma,-Aldrich, Arklow, Co. Wicklow, Ireland), 100 ng mL^−1 cholera toxin (Sigma, Aldrich, Arklow, Co. Wicklow, Ireland), 10 μg mL^−1 insulin (Sigma, Aldrich, Arklow, Co. Wicklow, Ireland), and penicillin/streptomycin 5000 U mL^−1 (1%)(Gibco, Biosciences, 3 Charlemont Terrace, Crofton Road, Dun Laoghaire, Co Dublin, A96 K7H7, Ireland). Cells were maintained at 37 °C in 5% CO2 in a humidified incubator. All cells were sub-cultured 3 times/week by trypsinisation using TrypLE Express (1×).
(§2) Cells were seeded at a density of 2.5 × 10^4 cells/well (MCF-7, MDA-MB-231, MCF-10A cells) and 1 × 10^4 cells/well (HL-60) in 96-well plates (200 μL per well). After 24 h, cells were then treated with either medium alone, vehicle control (1% ethanol (v/v)) or with serial dilutions of CA-4 (4a), phenstatin (7a) or selected compounds (0.001–100 μM) in triplicate. Cell proliferation for MCF-7, MDA-MB-231, and MCF-10A cells was analysed using the alamarBlue assay (Invitrogen Corp.) according to the manufacturer’s instructions. After 67–69 h, alamarBlue (10% (v/v)) was added to each well, and plates were incubated for 3–5 h at 37 °C in the dark. Fluorescence was read using a 96-well fluorimeter with excitation at 530 nm and emission at 590 nm. Results were expressed as percentage viability relative to vehicle control (100%).

[2] = system: MCF-7 human breast cancer cells; experiment: alamarBlue cell viability assay; format: cell-based; details: 72 h; for viability at 1 µM: MCF7, read-out: cell viability (viable cells); for IC50: alamarBlue, read-out: Antiproliferative Activity MCF-7 Cells IC50
Experimental: as §1, §2

LOX IMV1 = experiment: NCI 60 cell line screen (Melanoma); format: cell-based, human; details: for GI50: Homo sapiens, LOX IMV1, NCI 5 dose assay; for Growth percentage: LOX IMV1, single dose 10 µM
TK-10 = experiment: NCI 60 cell line screen (Renal Cancer); format: cell-based, human; details: for Growth percentage: TK-10, single dose 10 µM
EKVX = experiment: NCI 60 cell line screen (Non-Small Cell Lung Cancer); format: cell-based, human; details: for GI50: Homo sapiens, NCI 5 dose assay; for Growth percentage: single dose 10 µM
M14 = experiment: NCI 60 cell line screen (Melanoma); format: cell-based, human; details: for GI50: Homo sapiens, M14, NCI 5 dose assay; for Growth percentage: M14, single dose 10 µM
UO-31 = experiment: NCI 60 cell line screen (Renal Cancer); format: cell-based, human; details: for GI50: Homo sapiens, UO-31, NCI 5 dose assay; for Growth percentage: UO-31, single dose 10 µM
SW-620 = experiment: NCI 60 cell line screen (Colon Cancer); format: cell-based, human; details: for GI50: Homo sapiens, SW-620, NCI 5 dose assay; for Growth percentage: SW-620, single dose 10 µM
OVCAR-5 = experiment: NCI 60 cell line screen (Ovarian Cancer); format: cell-based, human; details: for GI50: Homo sapiens, OVCAR-5, NCI 5 dose assay; for Growth percentage: OVCAR-5, single dose 10 µM
BT-549 = experiment: NCI 60 cell line screen (Breast Cancer); format: cell-based, human; details: for Growth percentage: BT-549, single dose 10 µM; for GI50: Homo sapiens, BT-549, NCI 5 dose assay
K-562 = experiment: NCI 60 cell line screen (Leukemia); format: cell-based, human; details: for GI50: Homo sapiens, K562, K-562, NCI 5 dose assay; for Growth percentage: K-562, single dose 10 µM
NCI 60 cell line panel = experiment: NCI 60 cell line screen, panel means; format: cell-based, human; details: for Mean Growth percentage: 60 cell line panel, single dose 10 µM; for GI50 / LC50 (50% lethal concentration): Homo sapiens; for mean growth: 10 μM
T-47D = experiment: NCI 60 cell line screen (Breast Cancer); format: cell-based, human; details: single dose 10 µM
A549/ATCC = experiment: NCI 60 cell line screen (Non-Small Cell Lung Cancer); format: cell-based, human; details: for GI50: Homo sapiens, NCI 5 dose assay; for Growth percentage: single dose 10 µM
MCF-7 = experiment: NCI 60 cell line screen (Breast Cancer); format: cell-based, human; details: for GI50: Homo sapiens, MCF7, MCF-7, NCI 5 dose assay; for Growth percentage: MCF-7, single dose 10 µM
[3] = 60 cell, NCI 5 dose assay, 60 cell lines, read-out: MG-MID (mean of GI50 values over all cell lines)

| SMILES | IC50 (CYP19 (aromatase)) | inhibition at 20 µg/mL (CYP19 (aromatase)) [%] | GI50 (NCI-H23) [µM] | Growth percentage (NCI-H23) [%] | Growth percentage (SK-MEL-5) [%] | IC50 ([1]; Homo sapiens, MDA-MB-231, 72 h) [µM] | viability at 1 µM ([2]; Homo sapiens) [%] | Growth percentage (LOX IMV1) [%] | Growth percentage (TK-10) [%] | Growth percentage (EKVX) [%] | Growth percentage (M14) [%] | Growth percentage (UO-31) [%] | Growth percentage (SW-620) [%] | Growth percentage (OVCAR-5) [%] | Growth percentage (BT-549) [%] | Growth percentage (K-562) [%] | Mean Growth percentage (NCI 60 cell line panel) | Growth percentage (T-47D) [%] | Growth percentage (A549/ATCC) [%] | Growth percentage (MCF-7) [%] | also measured |
| --- | --- | --- | --- | --- | --- | --- | --- | --- | --- | --- | --- | --- | --- | --- | --- | --- | --- | --- | --- | --- | --- |
| COc1ccc(C(c2cc(OC)c(OC)c(OC)c2)n2cncn2)cc1O (centres unmarked) [19e, 5-((1H-1,2,4-Triazol-1-yl)(3,4,5-Trimethoxyphenyl)methyl)-2-Methoxyphenol] | 29 µM and 29.6 µM | 85.3 | 0.977 | 39.85 | 14.60 | 0.98 | 29 | 43.48 | 61.31 | 39.79 | -1.61 | 57.96 | 29.08 | 72.98 | 11.30 | 8.34 | 26.24% | 34.98 | 18.6 | 17.87 | inhibition at 20 µM (CYP19 (aromatase); read-out: inhibition of CYP19): > 85%; GI50 (SK-MEL-5): 0.44 µM; IC50 ([1]; 72 h): 0.978 ± 0.13 µM; GI50 (LOX IMV1): 0.523 µM; GI50 (TK-10; Homo sapiens, TK-10, NCI 5 dose assay): > 100 µM; GI50 (EKVX): 2.24 µM; GI50 (M14): 0.374 µM; GI50 (UO-31): 0.903 µM; GI50 (SW-620): 0.431 µM; GI50 (OVCAR-5): 1.99 µM; GI50 (BT-549): 0.618 µM; GI50 (K-562): 0.427 µM; MID TGI (total growth inhibition) (NCI 60 cell line panel; 60 cell lines): 53.7 µM; GI50 (NCI 60 cell line panel; [3]): 0.243 µM; GI50 (A549/ATCC): 0.969 µM; GI50 (MCF-7): 0.347 µM |
| COc1ccc(C(c2cc(OC)c(OC)c(OC)c2)n2ccnc2)cc1O (centres unmarked) [21l, 5-((1H-Imidazol-1-yl)(3,4,5-Trimethoxyphenyl)Methyl)-2-Methoxyphenol] |  | 74.7 | 0.882 | 38.92 | -12.88 | 0.237 ± 0.04 | 31 | 25.65 | 52.86 | 30.23 | 0.91 | 61.96 | 28.61 | 71.11 | -0.07 | 8.00 | 23.38% | 42.62 | 12.80 | 18.38 | GI50 (SK-MEL-5): 0.367 µM; IC50 [2]: 0.132 ± 0.007 µM; IC50 ([2]; Homo sapiens, MCF7, 72 h): 0.13 µM; GI50 (LOX IMV1): 0.523 µM; GI50 (EKVX): 0.702 µM; GI50 (M14): 0.18 µM; GI50 (UO-31): 0.883 µM; GI50 (SW-620): 0.387 µM; GI50 (OVCAR-5): 0.648 µM; GI50 (BT-549): 0.306 µM; GI50 (K-562): 0.225 µM; MID TGI (total growth inhibition) (NCI 60 cell line panel; 60 cell lines): 40.7 µM; GI50 (NCI 60 cell line panel; 60 cell, CNS cancer cell lines, read-out: GI50 range): 0.192 to 0.731 µM; GI50 (NCI 60 cell line panel; [3]): 0.234 µM; GI50 (NCI 60 cell line panel; 60 cell, breast cancer panel, read-out: GI50 range): 0.306 to 0.664 µM; LC50 (50% lethal concentration) (NCI 60 cell line panel; 60 cell, COMPARE analysis text, read-out: LC50 values (all)): > 100 µM; LC50 (50% lethal concentration) (NCI 60 cell line panel; 60 cell lines, read-out: MID LC50): > 100 µM; GI50 (A549/ATCC): 0.836 µM; GI50 (MCF-7): 0.339 µM |
| COc1ccc(C(c2cc(OC)c(OC)c(OC)c2)N2CCCC2)cc1 (centres unmarked) [25g] |  |  |  | 85.27 | 65.20 |  | 82 | 72.96 | 88.29 | 87.78 | 60.08 | 75.13 | 47.76 | 92.64 | 81.58 | 25.23 | 73.14% and 73.1% | 89.77 | 77.65 | 64.09 |  |
| COc1ccc(C(c2cc(OC)c(OC)c(OC)c2)N2CCCCC2)cc1 (centres unmarked) [26b, 1-((4-Methoxyphenyl)(3,4,5-Trimethoxyphenyl)Methyl)Piperidine] |  |  |  | 59.28 | 29.49 |  | 78 | 36.34 | 57.56 | 59.13 | 23.27 | 48.76 | 14.47 | 69.57 | 49.73 | 18.04 | 34.17% and 34.2% | 33.59 | 49.14 | 23.57 | mean growth (NCI 60 cell line panel; breast cancer panel): 30.3%; mean growth (NCI 60 cell line panel; leukaemia panel): 23.5% |
| COc1ccc(C(c2cc(OC)c(OC)c(OC)c2)N2CCN(Cc3ccccc3)CC2)cc1 (centres unmarked) [27d] |  |  |  | 88.53 | 52.63 |  |  | 67.02 | 84.76 | 82.69 | 52.83 | 68.80 | 43.57 | 84.69 | 92.41 | 26.38 | 65.45% and 65.5% | 75.11 | 78.38 | 47.67 |  |
| COc1ccc(C(c2cc(OC)c(OC)c(OC)c2)n2nccn2)cc1O (centres unmarked) [compound 24] | > 53.8 µM | 0.01 |  |  |  | 0.074 ± 0.03 | 27 |  |  |  |  |  |  |  |  |  |  |  |  |  | IC50 ([2]; Homo sapiens, MCF7, 72 h): 0.052 ± 0.04 µM |
